Test results: patent publication US20100048921A1, “PHARMACEUTICALLY ACTIVE COMPOUNDS” (priority 2007, published 2010)

System: thrombocytes (platelet-rich plasma)
Assay: Collagen-induced thrombocyte aggregation in platelet-rich plasma (aggregometry, PAP-8E)
Assay type: cell-based, human
Details: for End point (FA) / Maximum aggregation (MA): substance 50 μM
Description: The substances used, genistein, glu-glu, DMSO, ala-ala were provided by the company Sigma-Aldrich, Munich. For the measurement, the Platelet Aggregation Profiler Model PAP-8E of the company Bio/Data Corporation, an 8-channel aggregometer with a computerised digital curve creation, has been used.
After the taking of a blood sample from a large calibre vein in unbuffered citrate 10%, the whole blood which is achieved by this is centrifugated with about 1,500 RPM for 10 min. The platelet-rich plasma (PRP) which is achieved by this then has to rest for 45 min. at ambient temperature. At the same time, […] for the creation of the respective blank values is gained from the same sample with common centrifugation. For the measurement, cuvettes with a volume of 0.25 ml are used.
Stock solutions of the substances to be tested, including genistein as well as the peptides ala-ala and glu-glu which are used, are prepared in a ratio of 1 mg on 1 ml, genistein as well as the tested coupling products in DMSO, glu-glu and ala-ala in H2O.

[1] = collagen 1 μg/ml, listed as genistein

Q: How did the “active concentration which starts to be effective” value (collagen-induced aggregation, own specification) turn out when `O=c1c(-c2ccc(O)cc2)coc2cc(O)cc(O)c12` [Genistein, genistein] was run?
A: 50 µM

Q: And the “aggregation of the platelets” value (genistein 50 μM, collagen 1 μg/ml, reference (no additive) 90%)?
A: 82%

Q: What about the aggregation (genistein 100 μM, collagen 1 μg/ml, reference (no additive) 90%) of the same compound?
A: 50%

Q: What about the thrombocyte aggregation (genistein 200 μM, collagen 1 μg/ml) of the same compound?
A: almost completely inhibited

Q: What about the “End point (FA)” value (collagen 1 μg/ml) of the same compound?
A: 82%

Q: And the “Maximum aggregation (MA)” value (collagen 1 μg/ml)?
A: 85%

Q: What about the “End point (FA)” value [1] of the same compound?
A: 82%

Q: And the “Maximum aggregation (MA)” value [1]?
A: 85%
